According to article PMC6324813, “Biological evaluation of isoflavonoids from Genista halacsyi using estrogen-target cells: Activities of glucosides compared to aglycones” (PLoS ONE, 2019):

How the values were obtained:
HT22 cells = experiment: Glutamate toxicity (oxytosis) of HT22 neuronal cells (MTT); conditions: 1 nM estradiol or 1 μM compound; for viability of HT22 cells under normal growth conditions compared to vehicle-treated cells: no glutamate; for viability of glutamate-treated HT22 cells (% of glutamate-free cells): 5 mM glutamate 24 h
Description: Glutamate-challenged HT22 cells suffer oxidative stress-induced cell death (oxytosis) within 24 h due to glutathione depletion and consequent massive accumulation of ROS [42]. The efficacy of test compounds to prevent oxytosis of HT22 cells was assessed as already described. Briefly, HT22 cells were plated in 96-well flat bottom plates at a density of 4,000 cells per well in 100 μl of DMEM (low glucose) containing 2% FBS. 24 h after plating, the cells were treated with test compounds or compound diluent (0.1% DMSO) and then challenged with 5 mM glutamate for 24 h. […] Non-challenged cells served to assess test compound effects on cell viability, whereas challenged cells served to assess the neuroprotective activity of test compounds.

RAW 264.7 cells = experiment: Differentiation of RAW 264.7 cells to osteoclasts, TRAP activity; type: cell-based, mouse; conditions: RANKL 50 ng/ml + E2 1 nM or compound 1 μM; 3 days; DF plus vehicle = 100
Description: Clones of RAW 264.7 cells competent to differentiate to multinuclear osteoclasts upon activation with RANKL provide valuable information on the regulation of osteoclast differentiation. Differentiation-competent RAW cells (ATCC TIB-71) were seeded in 96-well plates at a density of 9,600 cells per well. The cells were plated in the presence of test compounds or compound diluent (0.1% DMSO) and, 4 h after plating, were exposed for 3 days to 50 ng/ml RANKL or to plain medium. Osteoclastic differentiation was assessed via induction of Tartrate-Resistant Acid Phosphatase (TRAP) activity. The cells were washed with PBS and incubated with 25μl lysis buffer (0.4 M NaCl, 25 mM Hepes pH 7.7, 1.5 mM MgCl2, 0.2 mM EDTA, 1% NP40) for 5 min on ice.

MCF-7 cells = experiment: MCF-7 cell proliferation (MTT); type: cell-based, human; conditions: Homo sapiens, MCF7, 72 h; read-out: Induction of cell proliferation (MCF-7 cells) Agonism at 1μΜ (% of 0.1nM E2)
Description: Test compound effects on the proliferation of MCF-7 and MDA-MB-231 cells were assessed as previously described.

MC3T3-E1 cells [1] = experiment: Mineralization of MC3T3-E1 cells, Alizarin red staining; type: cell-based, mouse; conditions: DF + E2 1 nM or compound 1 μM; 21 days; DF plus vehicle = 100
Description: (§1) Differentiation of MC3T3-E1 cells to osteoblasts has been extensively used to screen for compounds that may promote bone formation. Differentiation of MC3T3-E1 cells was carried out in 96-well plates using 3,300 cells per well and was assessed via induction of, i) Alkaline Phosphatase (AlkP) activity after 6 days of treatment and, ii) mineralization of extracellular matrix after 21 days of treatment. Briefly, 24 h after plating, the cells were incubated with test compounds or vehicle i.e. the compound diluent (0.1% DMSO) and then exposed for 6 days to differentiation medium in presence or absence of differentiation factors (cf. Cell culture) with a change to fresh compounds and medium in 3 days. AlkP activity was assessed at 405 nm in a Safire II microplate reader using as substrate p-nitrophenyl-phosphate (pNPP, Sigma-Aldrich) as already described. Mineralization of MC3T3 cells was assessed by staining with Alizarin red (Fluka). Cells were cultured and treated as described above for 21 days, with media and test compounds changed every 3 days, and calcium phosphate deposition was assayed as described by Gregory et al.. Briefly, the cells were washed twice with PBS and fixed with 70% ethanol for 15 min on ice. The cells were stained with Alizarin red solution (40 mM, pH 4.2) for 30 min at room temperature, washed twice with distilled water and once with PBS. The dye from the stained mineral deposits was extracted with 33% acetic acid and the absorbance was measured at 405 nm using a Safire II microplate reader (Tecan).

MC3T3-E1 cells [2] = experiment: Differentiation of MC3T3-E1 cells to osteoblasts, AlkP activity; type: cell-based, mouse; conditions: DF + E2 1 nM or compound 1 μM; 6 days; DF plus vehicle = 100
Description: as §1, with “Differentiation” for “Differentiation of MC3T3-E1 cells to osteoblasts has been extensively used to screen for compounds that may promote bone formation. Differentiation”

ERβ = ERβ (Homo sapiens, UniProt Q92731); experiment: ERE-dependent luciferase gene transcription in HEK:ERβ cells; type: cell-based; design: expressed in transfected cells; host or cells: HEK-293 (HEK:ERβ clone, with pERE-tk-Luciferase); conditions: 18 h
Sequence of ERβ (Q92731 whole entry): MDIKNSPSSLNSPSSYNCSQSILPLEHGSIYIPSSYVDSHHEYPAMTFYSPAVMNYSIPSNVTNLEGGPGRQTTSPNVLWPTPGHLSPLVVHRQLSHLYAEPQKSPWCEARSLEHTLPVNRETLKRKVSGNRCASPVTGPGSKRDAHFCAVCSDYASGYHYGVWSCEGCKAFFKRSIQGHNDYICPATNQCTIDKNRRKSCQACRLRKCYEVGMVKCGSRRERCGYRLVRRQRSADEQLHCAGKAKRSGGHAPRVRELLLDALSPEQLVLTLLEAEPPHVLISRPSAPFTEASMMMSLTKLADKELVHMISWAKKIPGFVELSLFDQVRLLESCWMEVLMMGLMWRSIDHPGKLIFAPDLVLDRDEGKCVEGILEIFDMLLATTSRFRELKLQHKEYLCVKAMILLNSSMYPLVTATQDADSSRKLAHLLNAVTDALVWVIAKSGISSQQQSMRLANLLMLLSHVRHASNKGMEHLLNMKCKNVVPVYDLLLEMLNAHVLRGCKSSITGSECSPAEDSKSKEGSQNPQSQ

Row | Structure (SMILES) | viability of HT22 cells under normal growth conditions compared to vehicle-treated cells (HT22 cells) | viability of glutamate-treated HT22 cells (% of glutamate-free cells) (HT22 cells) | Differentiation of RAW 267.4 cells, TRAP expression (%) (RAW 264.7 cells) | activation at 1 µM (MCF-7 cells) | Differentiation of MC3T3-E1 cells, Alizarin red staining (%) (MC3T3-E1 cells [1]) | Differentiation of MC3T3-E1 cells, AlkP expression (%) (MC3T3-E1 cells [2]) | Induction of luciferase gene transcription through ERβ, HEK:ERβ cells, Agonism at 1μΜ (% of 0.1nM E2) (ERβ; compounds 1 μM, estradiol 0.1 nM) | activation at 1 µM (ERβ; read-out: Induction of luciferase gene transcription through ERβ, HEK:ERβ cells, Agonism at 1μΜ (% of 0.1nM E2))
1 | O=c1c(-c2ccc(O)cc2)coc2cc(O[C@@H]3O[C@H](CO)[C@@H](O)[C@H](O)[C@H]3O)cc(O)c12 [Compound 12, 7-O-β-D-glucopyranosyl-genistein] | not different | ≤ 40% | 110±5% | 79 ± 9% | 137±14% | 125±8 % | 121 ± 18 (Full) % of 0.1nM E2 | 
2 | O=c1c(-c2ccc(OC3O[C@H](CO)[C@@H](O)[C@H](O)[C@H]3O)cc2)coc2cc(OC3O[C@H](CO)[C@@H](O)[C@H](O)[C@H]3O)cc(O)c12 (some centres unmarked) [Compound 11, 7,4΄-di-O-glucopyranosylgenistein] | not different | ≤ 40% | 112±9% | 79 ± 5% | 120±5% | 120±6 % |  | 80 ± 20%
